These results are taken from EP4417607A1, “HETEROCYCLIC COMPOUND AS SOS1 INHIBITOR AND USES THEREOF” (Nanjing Zaiming Pharmaceutical Co., Ltd., priority 2021, dated 2023).

One data set deals with H358 cells. In words: H358 cell proliferation inhibition (CellTiter-Glo luminescent cell viability assay). As to conditions: Homo sapiens, NCI-H358, 168 h, 7 days. Type of data set: cell-based. An outline of the steps:
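H358 cells seeded at 3000 cells/well in RPMI1640/10% FBS, treated with compound for 7 days at 37 °C/5% CO2. Viability read by CellTiter-Glo 3D luminescence, normalised to cell-free (100%) and compound-free (0%) controls; IC50 fitted from 8 concentrations by four-parameter curve.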
A general note: Cellular ATP, detected with luciferase, serves as a proxy for viable cell number.

Data set [1] is described as follows: Pharmacokinetics in mice after single intragastric or intravenous administration. In kind it is in vivo. The conditions noted are these: female, BALB/c nude, mouse, plasma. As for the experimental part:
Healthy adult female BALB/c nude mice were evenly divided into groups of 3 mice per group. 3 mice were administered intragastrically, and 3 mice were administered intravenously. The mice were purchased from Beijing Vital River Laboratory Animal Technology Co., Ltd., animal production license number: SCXK (Zhejiang) 2019-0001.
A certain amount of the compound of the present invention was weighed and dissolved in 5% DMSO + 20% PG + 5% anhydrous ethanol + 10% solutol + 60% water to prepare 5 mg/mL for intragastric administration. A certain amount of the compound of the present invention was weighed and dissolved in 1% DMSO + 4% PG + 1% anhydrous ethanol + 2% solutol + 92% water to prepare 0.5 mg/mL for intravenous injection.
Intragastric administration group: BALB/c nude mice were fasted overnight and then intragastrically administered the compound at a dose of 50 mg/kg and a volume of 10 mL/kg.
Intravenous administration group: BALB/c nude mice were fasted overnight and then intravenously administered the compound at a dose of 3 mg/kg and a volume of 6 mL/kg.
After intragastric administration or intravenous administration, 40 µL of blood was collected from orbits of the mice at 5 min, 15 min, 30 min, 1 h, 2 h, 4 h, 6 h, 8 h, and 24 h after administration, anticoagulated with 5 µL of EDTA-K2, centrifuged at 12000 rpm at 4 °C for 5 min to separate the plasma, and stored at -20 °C.
Determination of plasma concentrations in mice after intragastric administration or intravenous administration of different concentrations of the test compounds: the sample was melted at room temperature and vortexed for 1 min; 10 µL of the sample was quantitatively transferred to a 2-mL 96-well plate; 50 µL of an internal standard solution (a solution of tolbutamide in acetonitrile) and 50 µL of a precipitant (acetonitrile:methanol 7:3) were added, and the plate was shaken (1000 rpm * 3 min); the mixture was centrifuged (4000 rpm * 15 min); 80 µL of the supernatant was transferred to a 2-mL 96-well plate; 80 µL of a diluent (water) was added; the mixture was shaken evenly (1000 rpm * 3 min), and 5 µL of the sample was analyzed. LC/MS/MS conditions: The mobile phase A was 0.1% aqueous formic acid solution. The mobile phase B was 0.1% formic acid in acetonitrile. The column was Waters T3 1.8 µm (2.1 mm * 30 mm). The column temperature was 40 °C.

The test system of data set [2] is p-ERK pathway in H358 cells. In words: p-ERK pathway inhibition in H358 cells (Advanced phospho-ERK (Thr202/Tyr204) cellular kit, HTRF). In kind it is cell-based. As to conditions: Homo sapiens, NCI-H358, 1 h compound incubation. The essentials: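 Serum-starved H358 cells (50000/well, overnight) treated with compound for 1 h at 37 °C, then lysed; phospho-ERK (Thr202/Tyr204) read by HTRF (665/620 nm ratio). Cell-free wells set 100% inhibition, untreated cells 0%; IC50 fitted from 8 concentrations by four-parameter curve.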

Setting [3] is: po, single intragastric administration, 50 mg/kg.
Setting [4] is: single intravenous administration, 3 mg/kg.

Consider `COc1c(=O)n(C2(CF)CC2)cc2c(N[C@H](C)c3cccc(C(F)F)c3F)nc(C)nc12` [Example 1, (R)-4-((1-(3-(difluoromethyl)-2-fluorophenyl)ethyl)amino)-6-(1-(fluoromethyl)cyclopropyl)-8-methoxy-2-methylpyrido[4,3-d]pyrimidine-7(6H)-one], for which, in the data set on H358 cells, half-maximal inhibition (IC50) required 19.6 nM. Further, in data set [1] (setting [3]), the exposure AUC(0-t) is 17800 ng·h/mL, the Cmax was determined as 9430 ng/mL, the time of peak concentration (Tmax) came to 24 min and the half-life was 60 min. In data set [1] (setting [4]), this molecule gave an area under the curve AUC(0-t) of 619 ng·h/mL, a C0 of 2960 ng/mL and a half-life of 30 min. Moreover, in data set [1] (single intravenous administration, 3 mg/kg, read-out: Vss), the Vd was 3.8 L/kg. The 50% inhibitory concentration (IC50) in data set [2] is 20.7 nM.

One may read the IC50 as the concentration at which inhibition is half-maximal. One may read the AUC(0-t) as exposure summed from dosing to a finite time, without extrapolation to infinity. Lower therefore signals low exposure. One may read the Cmax as the highest concentration seen after dosing. In general, Tmax refers to the time at which the peak concentration occurs. Usually half-life stands for the time needed for the level to fall by half in the phase considered.
